Measurements reported in ChEMBL document CHEMBL3991601, “The target landscape of clinical kinase drugs” (Science, 2017).
Active and inactive are the calls of the source.

Tests used:
[1] = target: T1, Tyrosine--tRNA ligase, cytoplasmic (Homo sapiens, UniProt P54577)
T1 sequence (P54577 whole entry): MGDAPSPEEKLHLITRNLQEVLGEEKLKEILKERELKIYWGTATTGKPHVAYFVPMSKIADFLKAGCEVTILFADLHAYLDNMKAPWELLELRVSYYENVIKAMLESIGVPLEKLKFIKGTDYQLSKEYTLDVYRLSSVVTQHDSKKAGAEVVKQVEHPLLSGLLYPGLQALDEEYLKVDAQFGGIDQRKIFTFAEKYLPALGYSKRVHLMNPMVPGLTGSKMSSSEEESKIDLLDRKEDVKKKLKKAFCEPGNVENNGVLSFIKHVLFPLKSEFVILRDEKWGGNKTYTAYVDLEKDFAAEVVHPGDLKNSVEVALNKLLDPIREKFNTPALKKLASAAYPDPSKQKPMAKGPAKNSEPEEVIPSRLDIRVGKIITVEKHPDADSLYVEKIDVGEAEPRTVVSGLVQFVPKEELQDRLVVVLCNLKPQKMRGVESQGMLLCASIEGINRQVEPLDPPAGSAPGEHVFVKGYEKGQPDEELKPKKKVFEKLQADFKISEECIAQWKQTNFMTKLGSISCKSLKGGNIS

[2] = target: 26S proteasome regulatory subunit 6B (Homo sapiens, UniProt P43686)
[3] = target: T2, Succinate--CoA ligase [ADP-forming] subunit beta, mitochondrial (Homo sapiens, UniProt Q9P2R7)
T2 sequence (Q9P2R7 whole entry): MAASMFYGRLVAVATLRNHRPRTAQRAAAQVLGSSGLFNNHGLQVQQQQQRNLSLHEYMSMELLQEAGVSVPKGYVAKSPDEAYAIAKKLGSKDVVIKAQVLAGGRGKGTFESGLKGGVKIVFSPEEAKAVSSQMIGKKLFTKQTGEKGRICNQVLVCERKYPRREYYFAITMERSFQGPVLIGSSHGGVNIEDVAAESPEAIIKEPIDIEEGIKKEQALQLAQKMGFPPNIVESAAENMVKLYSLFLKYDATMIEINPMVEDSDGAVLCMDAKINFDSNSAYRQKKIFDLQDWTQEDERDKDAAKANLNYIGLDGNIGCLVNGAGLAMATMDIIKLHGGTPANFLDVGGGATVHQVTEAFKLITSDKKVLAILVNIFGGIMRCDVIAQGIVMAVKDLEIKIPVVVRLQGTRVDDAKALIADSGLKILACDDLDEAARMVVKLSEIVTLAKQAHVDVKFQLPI

[4] = target: T3, Serine/threonine-protein kinase NLK (Homo sapiens, UniProt Q9UBE8)
T3 sequence (Q9UBE8 whole entry): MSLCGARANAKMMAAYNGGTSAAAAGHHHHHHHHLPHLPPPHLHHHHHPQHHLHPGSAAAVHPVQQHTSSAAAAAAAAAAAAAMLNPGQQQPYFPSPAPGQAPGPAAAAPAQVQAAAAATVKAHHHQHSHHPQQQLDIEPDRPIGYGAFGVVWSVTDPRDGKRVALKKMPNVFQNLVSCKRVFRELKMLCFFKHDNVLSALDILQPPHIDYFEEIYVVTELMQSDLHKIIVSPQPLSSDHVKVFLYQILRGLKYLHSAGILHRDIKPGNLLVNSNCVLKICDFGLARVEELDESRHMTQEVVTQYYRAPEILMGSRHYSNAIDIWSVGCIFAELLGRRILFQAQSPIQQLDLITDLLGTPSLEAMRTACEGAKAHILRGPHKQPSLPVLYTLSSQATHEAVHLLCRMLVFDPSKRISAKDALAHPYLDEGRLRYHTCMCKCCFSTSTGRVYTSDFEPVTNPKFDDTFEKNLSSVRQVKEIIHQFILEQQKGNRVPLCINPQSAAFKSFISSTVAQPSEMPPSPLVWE

[5] = target: Serine/threonine-protein kinase/endoribonuclease IRE2 (Homo sapiens, UniProt Q76MJ5)
[6] = target: Ephrin type-A receptor 5 (Homo sapiens, UniProt P54756)
[7] = target: T4, Non-receptor tyrosine-protein kinase TNK1 (Homo sapiens, UniProt Q13470)
T4 sequence (Q13470 whole entry): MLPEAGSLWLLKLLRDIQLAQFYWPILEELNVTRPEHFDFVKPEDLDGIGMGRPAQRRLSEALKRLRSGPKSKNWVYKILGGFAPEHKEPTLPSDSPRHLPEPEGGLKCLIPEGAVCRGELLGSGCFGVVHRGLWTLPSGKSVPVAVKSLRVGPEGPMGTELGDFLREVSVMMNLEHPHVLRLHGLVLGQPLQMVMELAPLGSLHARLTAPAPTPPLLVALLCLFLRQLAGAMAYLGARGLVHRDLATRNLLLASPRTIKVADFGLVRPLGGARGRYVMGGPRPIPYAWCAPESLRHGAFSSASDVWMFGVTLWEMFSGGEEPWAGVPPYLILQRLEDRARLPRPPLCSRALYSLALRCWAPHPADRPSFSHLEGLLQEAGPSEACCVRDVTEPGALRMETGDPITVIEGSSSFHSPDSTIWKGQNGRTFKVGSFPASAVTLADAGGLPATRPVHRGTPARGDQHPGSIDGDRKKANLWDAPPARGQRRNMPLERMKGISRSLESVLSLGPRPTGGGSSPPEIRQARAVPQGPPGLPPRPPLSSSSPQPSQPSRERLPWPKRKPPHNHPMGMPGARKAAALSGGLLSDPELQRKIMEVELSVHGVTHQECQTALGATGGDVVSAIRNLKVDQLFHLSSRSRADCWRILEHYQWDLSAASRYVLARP

[8] = target: STE20-like serine/threonine-protein kinase (Homo sapiens, UniProt Q9H2G2)
[9] = target: Tyrosine-protein kinase Fyn (Homo sapiens, UniProt P06241)
[10] = target: Structural maintenance of chromosomes protein 2 (Homo sapiens, UniProt O95347)
[11] = target: T5, Ras-related protein Rab-27A (Homo sapiens, UniProt P51159)
T5 sequence (P51159 whole entry): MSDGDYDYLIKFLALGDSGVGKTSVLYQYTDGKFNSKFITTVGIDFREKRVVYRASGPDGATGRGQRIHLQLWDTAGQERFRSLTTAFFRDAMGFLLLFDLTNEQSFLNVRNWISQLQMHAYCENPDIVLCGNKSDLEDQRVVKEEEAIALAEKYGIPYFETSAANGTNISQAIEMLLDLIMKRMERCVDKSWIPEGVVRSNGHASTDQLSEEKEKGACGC
Note: in the data inactive means no Kd found up to 30 µM.

26S proteasome regulatory subunit 6B, sequence (P43686 whole entry): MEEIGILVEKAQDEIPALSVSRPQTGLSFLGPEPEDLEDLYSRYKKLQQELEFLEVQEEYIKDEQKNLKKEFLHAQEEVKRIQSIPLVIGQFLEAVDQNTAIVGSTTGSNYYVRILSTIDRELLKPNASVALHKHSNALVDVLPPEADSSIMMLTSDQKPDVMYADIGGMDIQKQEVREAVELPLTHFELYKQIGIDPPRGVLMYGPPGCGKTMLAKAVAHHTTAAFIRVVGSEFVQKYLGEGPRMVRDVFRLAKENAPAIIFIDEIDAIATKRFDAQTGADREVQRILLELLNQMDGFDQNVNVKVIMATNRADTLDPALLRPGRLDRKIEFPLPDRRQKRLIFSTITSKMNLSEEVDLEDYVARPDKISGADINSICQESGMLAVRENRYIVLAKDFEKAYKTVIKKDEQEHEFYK
Tyrosine-protein kinase Fyn, sequence (P06241 whole entry): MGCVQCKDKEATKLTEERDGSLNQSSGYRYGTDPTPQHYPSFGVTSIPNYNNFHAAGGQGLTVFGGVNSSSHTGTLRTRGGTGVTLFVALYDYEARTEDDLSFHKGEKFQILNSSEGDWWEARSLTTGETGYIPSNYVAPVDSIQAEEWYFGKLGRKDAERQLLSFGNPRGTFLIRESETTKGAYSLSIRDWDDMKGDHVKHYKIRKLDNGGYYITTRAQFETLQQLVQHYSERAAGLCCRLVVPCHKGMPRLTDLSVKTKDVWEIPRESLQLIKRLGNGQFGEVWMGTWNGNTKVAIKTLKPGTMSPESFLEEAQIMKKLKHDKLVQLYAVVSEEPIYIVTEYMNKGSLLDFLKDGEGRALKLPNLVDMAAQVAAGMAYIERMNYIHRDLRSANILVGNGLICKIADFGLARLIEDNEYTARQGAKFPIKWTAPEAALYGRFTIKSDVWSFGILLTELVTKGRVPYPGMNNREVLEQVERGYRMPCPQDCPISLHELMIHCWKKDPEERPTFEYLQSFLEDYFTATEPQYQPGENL
Ephrin type-A receptor 5, sequence (P54756 whole entry): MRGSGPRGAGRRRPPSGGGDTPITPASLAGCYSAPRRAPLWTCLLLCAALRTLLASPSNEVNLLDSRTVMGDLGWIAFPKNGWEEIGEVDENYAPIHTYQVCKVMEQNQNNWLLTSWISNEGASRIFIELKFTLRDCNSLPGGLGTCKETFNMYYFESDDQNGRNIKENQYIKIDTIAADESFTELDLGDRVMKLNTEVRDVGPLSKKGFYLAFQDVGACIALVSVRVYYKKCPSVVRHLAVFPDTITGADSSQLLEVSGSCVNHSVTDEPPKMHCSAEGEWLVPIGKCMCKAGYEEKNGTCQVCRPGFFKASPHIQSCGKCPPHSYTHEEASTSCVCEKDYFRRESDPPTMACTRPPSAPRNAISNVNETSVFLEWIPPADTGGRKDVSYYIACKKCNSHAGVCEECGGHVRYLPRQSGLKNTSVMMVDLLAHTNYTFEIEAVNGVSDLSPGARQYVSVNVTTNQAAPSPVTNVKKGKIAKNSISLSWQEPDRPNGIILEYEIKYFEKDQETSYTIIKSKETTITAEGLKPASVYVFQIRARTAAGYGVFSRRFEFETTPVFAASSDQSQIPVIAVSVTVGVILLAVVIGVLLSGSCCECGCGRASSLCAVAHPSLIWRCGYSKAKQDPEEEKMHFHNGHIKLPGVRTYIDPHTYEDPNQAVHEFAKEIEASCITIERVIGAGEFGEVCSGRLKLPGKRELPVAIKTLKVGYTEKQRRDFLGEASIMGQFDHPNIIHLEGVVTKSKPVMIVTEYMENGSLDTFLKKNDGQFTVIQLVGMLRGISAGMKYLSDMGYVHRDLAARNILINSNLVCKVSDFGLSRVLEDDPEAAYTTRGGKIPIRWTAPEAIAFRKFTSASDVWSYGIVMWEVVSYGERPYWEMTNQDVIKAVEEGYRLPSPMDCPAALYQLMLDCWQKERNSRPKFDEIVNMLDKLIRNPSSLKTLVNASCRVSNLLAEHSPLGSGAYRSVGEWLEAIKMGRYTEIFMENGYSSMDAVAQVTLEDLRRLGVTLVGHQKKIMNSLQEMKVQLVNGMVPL
Serine/threonine-protein kinase/endoribonuclease IRE2, sequence (Q76MJ5 whole entry): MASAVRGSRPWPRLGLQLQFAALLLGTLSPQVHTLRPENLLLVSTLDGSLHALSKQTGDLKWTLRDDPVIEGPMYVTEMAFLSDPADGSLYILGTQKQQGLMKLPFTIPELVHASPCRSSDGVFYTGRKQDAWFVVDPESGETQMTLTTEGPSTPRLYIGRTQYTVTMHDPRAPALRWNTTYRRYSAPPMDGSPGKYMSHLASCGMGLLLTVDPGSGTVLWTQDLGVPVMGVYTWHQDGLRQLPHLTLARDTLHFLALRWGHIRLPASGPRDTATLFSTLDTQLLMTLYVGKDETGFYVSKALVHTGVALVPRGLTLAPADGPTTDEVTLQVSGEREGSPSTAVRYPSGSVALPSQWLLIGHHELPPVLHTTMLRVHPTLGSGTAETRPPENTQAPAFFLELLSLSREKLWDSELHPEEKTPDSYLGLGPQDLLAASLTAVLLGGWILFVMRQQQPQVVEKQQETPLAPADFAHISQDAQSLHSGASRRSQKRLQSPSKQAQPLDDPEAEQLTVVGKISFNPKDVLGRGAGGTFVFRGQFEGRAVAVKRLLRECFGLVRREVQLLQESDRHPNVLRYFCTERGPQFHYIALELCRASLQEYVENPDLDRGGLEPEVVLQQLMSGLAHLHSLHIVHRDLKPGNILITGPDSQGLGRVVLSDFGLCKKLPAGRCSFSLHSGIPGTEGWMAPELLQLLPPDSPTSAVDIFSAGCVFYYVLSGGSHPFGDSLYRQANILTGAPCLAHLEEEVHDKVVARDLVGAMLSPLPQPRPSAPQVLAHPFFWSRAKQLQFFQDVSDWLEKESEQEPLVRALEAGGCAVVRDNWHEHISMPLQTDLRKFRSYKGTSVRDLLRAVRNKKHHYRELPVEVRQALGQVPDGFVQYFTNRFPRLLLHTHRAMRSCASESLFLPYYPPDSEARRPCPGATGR
Structural maintenance of chromosomes protein 2, sequence (O95347 whole entry): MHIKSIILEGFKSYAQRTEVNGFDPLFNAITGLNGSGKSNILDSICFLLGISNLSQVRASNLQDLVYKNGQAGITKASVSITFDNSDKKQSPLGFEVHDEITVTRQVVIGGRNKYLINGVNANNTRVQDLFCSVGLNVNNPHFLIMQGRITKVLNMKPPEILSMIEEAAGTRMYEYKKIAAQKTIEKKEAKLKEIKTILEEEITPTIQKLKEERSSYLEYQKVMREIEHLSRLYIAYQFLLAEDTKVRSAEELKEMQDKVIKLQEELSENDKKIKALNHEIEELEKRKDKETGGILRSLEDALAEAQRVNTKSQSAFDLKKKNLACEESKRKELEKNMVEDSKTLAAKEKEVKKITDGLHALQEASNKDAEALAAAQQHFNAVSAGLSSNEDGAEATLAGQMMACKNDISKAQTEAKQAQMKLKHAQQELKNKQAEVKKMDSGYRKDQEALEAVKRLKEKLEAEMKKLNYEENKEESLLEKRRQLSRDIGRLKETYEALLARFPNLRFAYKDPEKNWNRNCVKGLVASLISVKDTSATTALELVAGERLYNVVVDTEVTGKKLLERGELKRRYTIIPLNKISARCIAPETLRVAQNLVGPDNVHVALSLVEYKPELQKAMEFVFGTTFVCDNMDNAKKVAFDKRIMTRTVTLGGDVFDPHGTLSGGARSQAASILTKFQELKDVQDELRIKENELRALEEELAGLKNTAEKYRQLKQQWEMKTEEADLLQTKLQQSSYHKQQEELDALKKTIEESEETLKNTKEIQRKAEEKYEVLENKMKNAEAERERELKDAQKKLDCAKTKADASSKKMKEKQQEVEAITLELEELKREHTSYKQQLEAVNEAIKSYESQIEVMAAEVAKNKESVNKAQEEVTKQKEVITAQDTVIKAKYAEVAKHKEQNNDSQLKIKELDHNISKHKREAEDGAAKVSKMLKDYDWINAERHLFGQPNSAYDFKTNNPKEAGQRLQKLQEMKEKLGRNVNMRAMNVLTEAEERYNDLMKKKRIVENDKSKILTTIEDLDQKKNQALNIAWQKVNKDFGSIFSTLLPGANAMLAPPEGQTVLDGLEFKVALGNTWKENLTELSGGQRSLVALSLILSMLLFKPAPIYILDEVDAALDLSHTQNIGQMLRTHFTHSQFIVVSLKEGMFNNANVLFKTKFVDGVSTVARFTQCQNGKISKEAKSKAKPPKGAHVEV

| Kd [1] | Kd [2] | Kd [3] | Kd [4] | Kd [5] | Kd [6] | Kd [7] | Kd [8] | Kd [9] | Kd [10] | Kd [11] | SMILES |
| --- | --- | --- | --- | --- | --- | --- | --- | --- | --- | --- | --- |
| > 30 µM (inactive) | > 30 µM (inactive) | > 30 µM (inactive) | > 30 µM (inactive) | > 30 µM (inactive) | > 30 µM (inactive) | – | > 30 µM (inactive) | – | > 30 µM (inactive) | > 30 µM (inactive) | Cc1cc(Nc2cc(N3CCN(C)CC3)nc(/C=C/c3ccccc3)n2)n[nH]1 [ENMD-2076] |
| > 30 µM (inactive) | > 30 µM (inactive) | > 30 µM (inactive) | – | > 30 µM (inactive) | > 30 µM (inactive) | > 30 µM (inactive) | 4.32 µM (active) | > 30 µM (inactive) | > 30 µM (inactive) | > 30 µM (inactive) | O=C1NC(=O)/C(=C/c2ccc3nccc(-c4ccncc4)c3c2)S1 [GSK-1059615] |
| > 30 µM (inactive) | > 30 µM (inactive) | > 30 µM (inactive) | – | > 30 µM (inactive) | – | – | – | – | 1.11 µM (active) | > 30 µM (inactive) | CCn1c(-c2nonc2N)nc2c(C#CC(C)(C)O)ncc(OC[C@H]3CCCNC3)c21 [GSK-690693] |

Continued, molecule first:

| SMILES | Kd [1] | Kd [2] | Kd [3] | Kd [4] | Kd [5] | Kd [6] | Kd [7] | Kd [8] | Kd [9] | Kd [10] | Kd [11] |
| --- | --- | --- | --- | --- | --- | --- | --- | --- | --- | --- | --- |
| Cn1ncc(Cl)c1-c1cc(C(=O)N[C@H](CN)Cc2cccc(F)c2)sc1Cl [AFURESERTIB] | > 30 µM (inactive) | > 30 µM (inactive) | > 30 µM (inactive) | > 30 µM (inactive) | > 30 µM (inactive) | > 30 µM (inactive) | > 30 µM (inactive) | > 30 µM (inactive) | > 30 µM (inactive) | > 30 µM (inactive) | – |
| Cc1cn(-c2cc(NC(=O)c3ccc(C)c(Nc4nccc(-c5cccnc5)n4)c3)cc(C(F)(F)F)c2)cn1 [NILOTINIB] | > 30 µM (inactive) | > 30 µM (inactive) | > 30 µM (inactive) | – | > 30 µM (inactive) | – | – | – | – | > 30 µM (inactive) | > 30 µM (inactive) |
| CN1N=C(N)c2cn([C@@H]3O[C@H](COP(=O)(O)O)[C@@H](O)[C@H]3O)c3ncnc1c23 [TRICIRIBINE PHOSPHATE] | > 30 µM (inactive) | > 30 µM (inactive) | > 30 µM (inactive) | – | > 30 µM (inactive) | > 30 µM (inactive) | > 30 µM (inactive) | > 30 µM (inactive) | > 30 µM (inactive) | > 30 µM (inactive) | > 30 µM (inactive) |
| OCCn1cc(-c2cnc3nnn(Cc4ccc5ncccc5c4)c3n2)cn1 [PF-04217903] | > 30 µM (inactive) | > 30 µM (inactive) | > 30 µM (inactive) | > 30 µM (inactive) | > 30 µM (inactive) | > 30 µM (inactive) | > 30 µM (inactive) | > 30 µM (inactive) | – | > 30 µM (inactive) | > 30 µM (inactive) |
| CCc1cnn2c(NCc3ccc[n+]([O-])c3)cc(N3CCCC[C@H]3CCO)nc12 [DINACICLIB] | > 30 µM (inactive) | > 30 µM (inactive) | > 30 µM (inactive) | > 30 µM (inactive) | > 30 µM (inactive) | > 30 µM (inactive) | > 30 µM (inactive) | > 30 µM (inactive) | – | > 30 µM (inactive) | > 30 µM (inactive) |
| O=C(Nc1cccc(Cl)c1)Nc1ncc(CCNc2ncnc3ccsc23)s1 [SNS-314] | > 30 µM (inactive) | > 30 µM (inactive) | > 30 µM (inactive) | – | > 30 µM (inactive) | > 30 µM (inactive) | > 30 µM (inactive) | – | – | > 30 µM (inactive) | > 30 µM (inactive) |
| C1=C/COCc2cc(ccc2OCCN2CCCC2)Nc2nccc(n2)-c2cccc(c2)COC/1 [PACRITINIB] | > 30 µM (inactive) | > 30 µM (inactive) | > 30 µM (inactive) | > 30 µM (inactive) | > 30 µM (inactive) | > 30 µM (inactive) | 0.888 µM (active) | > 30 µM (inactive) | > 30 µM (inactive) | > 30 µM (inactive) | – |
| Cc1nc(N)sc1-c1ccnc(Nc2ccc(N3CCOCC3)cc2)n1 [CYC-116] | > 30 µM (inactive) | > 30 µM (inactive) | > 30 µM (inactive) | – | > 30 µM (inactive) | – | > 30 µM (inactive) | – | – | > 30 µM (inactive) | > 30 µM (inactive) |
| CN1CCN(c2ccc3nc(-c4c(N)c5c(F)cccc5[nH]c4=O)[nH]c3c2)CC1 [DOVITINIB] | > 30 µM (inactive) | > 30 µM (inactive) | – | – | > 30 µM (inactive) | – | – | – | – | > 30 µM (inactive) | > 30 µM (inactive) |
| N[C@@H]1CCCN(c2c(/C=C3\SC(=O)NC3=O)cccc2-c2ccccc2)C1 | > 30 µM (inactive) | > 30 µM (inactive) | > 30 µM (inactive) | > 30 µM (inactive) | > 30 µM (inactive) | – | > 30 µM (inactive) | > 30 µM (inactive) | > 30 µM (inactive) | > 30 µM (inactive) | > 30 µM (inactive) |
| Nc1nc(N)c2nc(-c3cccc(O)c3)c(-c3cccc(O)c3)nc2n1 [TG100-115] | > 30 µM (inactive) | > 30 µM (inactive) | – | – | > 30 µM (inactive) | – | – | – | – | > 30 µM (inactive) | > 30 µM (inactive) |
| COc1cc(CCc2cc(NC(=O)c3ccc(N4C[C@@H](C)N[C@@H](C)C4)cc3)n[nH]2)cc(OC)c1 [AZD-4547] | > 30 µM (inactive) | > 30 µM (inactive) | – | > 30 µM (inactive) | > 30 µM (inactive) | > 30 µM (inactive) | > 30 µM (inactive) | > 30 µM (inactive) | > 30 µM (inactive) | > 30 µM (inactive) | – |
| COc1cc(OC)c(/C=C/S(=O)(=O)Cc2ccc(OC)c(NCC(=O)O)c2)c(OC)c1 [RIGOSERTIB] | > 30 µM (inactive) | > 30 µM (inactive) | – | > 30 µM (inactive) | > 30 µM (inactive) | > 30 µM (inactive) | > 30 µM (inactive) | > 30 µM (inactive) | > 30 µM (inactive) | > 30 µM (inactive) | > 30 µM (inactive) |
